Source: patent publication US20170008888A1 (KYORIN PHARMACEUTICAL CO., LTD., priority 2014, published 2017)

Assays:
SMARCA4 = target: T1, SMARCA4 (Homo sapiens, UniProt P51532); assay: Bromodomain binding assay: SMARCA4
T1 construct: made in house; host or cells: E. coli host derived from the BL21 strain (T7 phage lysate)
Protocol: (§1) T7 phage strains displaying bromodomains were grown in parallel in 24-well blocks in an E. coli host derived from the BL21 strain. E. coli were grown to log-phase and infected with T7 phage from a frozen stock (multiplicity of infection=0.4) and incubated with shaking at 32° C. until lysis (90-150 minutes). The lysates were centrifuged (5,000×g) and filtered (0.2 μm) to remove cell debris. […] The liganded beads were blocked with excess biotin and washed with blocking buffer (SeaBlock (Pierce), 1% BSA, 0.05 Tween 20, 1 mM DTT) to remove unbound ligand and to reduce non-specific phage binding. […] Test compounds (T62 and 46) were prepared as 1000× stocks in 100% DMSO and subsequently diluted 1:10 in monoethylene glycol (MEG) to create stocks at 100× the screening concentration (resulting stock solution is 10% DMSO/90% MEG). The compounds were then diluted directly into the assays such that the final concentration of DMSO and MEG were 0.1% and 0.9%, respectively. All reactions were performed in polystyrene 96-well plates in a final volume of 0.135 ml. […] The bromodomain concentration in the eluates was measured by qPCR. Compounds were assayed for binding activity against a panel of 40 bromodomain-containing proteins.

TRIM33 = target: T2, TRIM33 (Homo sapiens, UniProt Q9UPN9); assay: Bromodomain binding assay: TRIM33
T2 construct: made in house; host or cells: E. coli host derived from the BL21 strain (T7 phage lysate)
Protocol: as §1

TRIM24 = target: T3, TRIM24 (Homo sapiens, UniProt O15164); assay: Bromodomain binding assay: TRIM24
T3 construct: made in house; host or cells: E. coli host derived from the BL21 strain (T7 phage lysate)
Protocol: as §1

BRD9 = target: T4, BRD9 (Homo sapiens, UniProt Q9H8M2); assay: Bromodomain binding assay: BRD9
T4 construct: T7 phage strains displaying bromodomains were grown in parallel; made in house; host or cells: E. coli host derived from BL21, infected with T7 phage
Protocol: as §1

BRPF3 = target: T5, BRPF3 (Homo sapiens, UniProt Q9ULD4); assay: Bromodomain binding assay: BRPF3
T5 construct: T7 phage strains displaying bromodomains were grown in parallel; made in house; host or cells: E. coli host derived from BL21, infected with T7 phage
Protocol: as §1

Measured: Kd

T2 sequence (Q9UPN9 957-1080 limits assumed): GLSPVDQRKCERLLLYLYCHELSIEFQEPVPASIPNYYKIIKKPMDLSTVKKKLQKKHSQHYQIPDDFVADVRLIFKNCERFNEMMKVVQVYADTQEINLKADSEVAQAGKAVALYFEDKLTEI
T1 sequence (P51532 1453-1564 limits assumed): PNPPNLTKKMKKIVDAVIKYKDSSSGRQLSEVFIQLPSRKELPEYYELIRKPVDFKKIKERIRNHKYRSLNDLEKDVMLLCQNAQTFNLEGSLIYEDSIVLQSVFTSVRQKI
T5 sequence (Q9ULD4 589-693 limits assumed, species assumed): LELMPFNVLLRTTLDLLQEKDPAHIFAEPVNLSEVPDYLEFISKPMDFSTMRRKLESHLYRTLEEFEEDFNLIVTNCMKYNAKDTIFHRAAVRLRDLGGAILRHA
T3 sequence (O15164 899-1004 limits assumed): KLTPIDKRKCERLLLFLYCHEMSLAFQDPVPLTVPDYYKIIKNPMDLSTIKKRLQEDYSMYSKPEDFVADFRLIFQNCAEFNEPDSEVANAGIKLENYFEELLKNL
T4 sequence (Q9H8M2 136-240 limits assumed, species assumed): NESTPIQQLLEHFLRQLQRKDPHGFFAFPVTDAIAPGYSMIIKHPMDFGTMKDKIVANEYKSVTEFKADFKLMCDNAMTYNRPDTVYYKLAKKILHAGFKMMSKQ

CCOc1cc(C(=O)N2CCC(N3CCCC3)CC2)ccc1Nc1cc2c(cn1)N(C)C(=O)c1ccccc1N2C [Compound 46, 3-(2-Ethoxy-4-(4-(pyrrolidin-1-yl)piperidine-1-carbonyl)phenylamino)-5,11-dimethyl-5H-benzo[e]pyrido[3,4-b][1,4]diazepin-10(11H)-one]
> 20 µM: all assays above

CCOc1cc(C(=O)N[C@H]2CC[C@H](O)CC2)ccc1Nc1cc2c(cn1)N(C)C(=O)c1ccccc1N2C [Compound T62]
> 20 µM: all assays above
